Patent publication US20160124002A1, “METHOD FOR DETECTING HYPOXIA OR DIAGNOSING HYPOXIA-RELATED DISEASES” (SEOUL NATIONAL UNIVERSITY R&DB FOUNDATION, priority 2013, published 2016)

Test system: THP-1 cell line
Assay: Metabolites in culture medium of THP-1 cells under low oxygen with HIF-1 inhibition (LC/Q-TOF MS)
Assay type: cell-based, human
Settings: THP-1 culture medium, low oxygen (1% O2)
Description: A THP-1 cell line, a human monocyte-derived cell line was cultured in the conditions of regular oxygen (21% oxygen), low oxygen (1% oxygen), and regular oxygen after low oxygen (reoxygenation), and then, the metabolites included in the culture media were identified and quantified using a LC/Q-TOF MS analysis as follows.
The human-derived monocyte cells (THP-1) (Korean Cell Line Bank, KCLB No. 40202) at 5×10^5 cells/4 mL medium were cultured in DMEM (Dulbecco's modified Eagle's medium) including 10% FBS (fetal bovine serum) under the condition of regular oxygen (21% O2, 5% CO2) at 37° C. for 24 hours, the condition of low oxygen (1% O2, 5% CO2) at 37° C. for 24 hours, or the condition of regular oxygen for 16 hours after low oxygen for 8 hours (reoxygenation) at 37° C.
After that, the media without the cells were isolated to obtain the samples to be analyzed. The media were subjected to a centrifugation at 3000 rpm and 4° C. to obtain supernatants only. The supernatants were then aliquoted and stored in a −70° C. cryogenic deep-freezer, and were thawed immediately before use.
In order to decrease the expression of a hypoxia-inducible factor-1 (HIF-1), a major regulator in a low oxygen environment, two types of si-HIF-1alpha (#1, 5′-CAAAGUUAAAGCAUCAGG-3′; #2, 5′-UGUACUGUCCUGUGGUGA-3′) were prepared, and then used for transfection into the cells using Lipofectamine RNA iMAX reagents (Life Technologies, USA) following the manufacturer's instruction. In addition, 2-methoxyestradiol (2ME2) and 17-N-Allylamino-17-demethoxygeldanamycin (17-AAG) used (Selleck chemicals) as the inhibitors of HIF-1 were used, and YC-1 was purchased from A.G. Scientific. The cells were treated also with 2ME2 and 17-AAG at the concentrations of 100 μM during the exposure of a low oxygen condition.
H2O (400 μl) at 4° C. and medium (100 μl) were put into a 1.5 ml micro tube so as to be diluted. After that, the sample was mixed well using a vortex, and then was filtered/centrifuged at 4° C. and 14,000 g for 20 minutes to obtain the supernatant thereof. The supernatant was collected in assay vials. In addition, for a QC (quality control) assay, the diluted samples of 50 μl from all the samples were mixed (pooling).
The samples that were prepared as described above were isolated by the system equipped with a reverse column, Zorbax SB-C18, 50×2.1 mm, 1.8 μm (Agilent Technologies, USA) in Binary Agilent 1200 series HPLC (Agilent Technologies). At this time, the assay sample in the amount of 5 μl was injected so as to pass through the column that was heated at 40° C. The metabolite sample was subjected to a gradient elution with 98% solvent A (2 mM ammonium formate and 0.1% formic acid in H2O) and 2% solvent B (0.1% formic acid in methanol) at the rate of 400 μl/min for 21 minutes. In order to avoid a cross-contamination, a blank run was performed between the sample runs.
ESI algorithm was used by coupling an Agilent 6530 quadrupole time-of-flight (Q-TOF) mass spectrometer (Agilent Technologies) with HPLC. Four centroid data per one second for one spectrum from 100 to 1100 m/z were obtained, and the m/z for all the spectra were calibrated in real time using the reference value externally supplied.
The metabolites were first identified from the mass spectra in the HMDB (http://www.hmdb.ca/) and METLIN (http://metlin.scripps.edu/) database using a software (Agilent MassHunter Qualitative Analysis (version B.05.00), Agilent Mass Profiler Professional (version B.02.02)). After that, the cleavage pattern by the LC/MS/MS assay of the corresponding metabolite was subjected to an additional confirmation work as compared to a practical standard material (Cayman, Ann Arbor, Mich., USA).
The relative concentration of the corresponding metabolites was calculated using the chromatograph area of the respective metabolite in the culture solution obtained from the corresponding cells. […]

[1] = treated with HIF-1 inhibitor (2ME2 and 17-AAG at 100 μM), FIG. 4
[2] = HIF-1 expression inhibited by si-RNA, FIG. 3

Compound	5-HETE that was increased under the low oxygen condition (H) [1]	5-oxoETE that was increased under the low oxygen condition (H) [1]	5-HETE that was increased under the low oxygen condition (H) [2]	5-oxoETE that was increased under the low oxygen condition (H) [2]
COc1cc2c(cc1O)CC[C@@H]1[C@@H]2CC[C@]2(C)[C@@H](O)CC[C@@H]12 [2ME2, 2-methoxyestradiol]	decreased	decreased	–	–
C=CCNC1=C2C[C@@H](C)C[C@H](OC)[C@H](O)[C@@H](C)/C=C(\C)[C@H](OC(N)=O)[C@@H](OC)/C=C\C=C(/C)C(=O)NC(=CC1=O)C2=O [17-AAG, 17-N-Allylamino-17-demethoxygeldanamycin]	decreased	decreased	–	–
OCc1ccc(-c2nn(Cc3ccccc3)c3ccccc23)o1 [YC-1]	decreased	decreased	–	–
si-HIF-1a#1: si-RNA against HIF-1alpha, 5′-CAAAGUUAAAGCAUCAGG-3′ (chemistry not given here)	–	–	decreased	decreased
si-HIF-1a#2: si-RNA against HIF-1alpha, 5′-UGUACUGUCCUGUGGUGA-3′ (chemistry not given here)	–	–	decreased	decreased
